Laboratory results as given in patent US20090131391A1, “INHIBITOR FOR DIFFERENTIATION OF HEMATOPOIETIC PRECURSOR CELLS” (OOO "MBF", priority 2006, published 2009).

What was measured:
[1] = test system: colony-forming cells in the spleen, CFC-S; assay: Exogenous spleen colony assay (CFC-S) after agent and gamma-irradiation of donor mice; assay type: in vivo
Procedure: Assay of effect of various doses of ionizing radiation on hematopoiesis. 950 female mice of two lines—(CBA×C 57 B 1/6) F1 and (DBA×C 57B1/6) F1—were used in this study. Radiation was administered using a radiation therapy machine “Luch-1” utilizing gamma-rays ^60Co at 0.9 Gy/min. 9-phenyl-symmetric-octahydroselenoxanthene was administered orally in doses 1.0, 5.0, 10 and 20 mg/kg in 0.2 ml of oil. Agent was administered 1, 3 or 7 days prior to radiation treatment of 1.5 Gy; bone marrow was then extracted from donor mice, and cell suspension was injected into lethally irradiated (8 Gy) recipient mice of the same line. Colony-forming activity was assayed by number of exogenous spleen colonies when mice were sacrificed on day 9.
300 female mice of line (CBA×C57B1/6) F1 were used in the experiment. Radiation was administered using a radiation therapy machine “Luch-1” utilizing gamma-rays ^60Co at 0.9 Gy/min. 9-phenyl-symmetric-octahydroselenoxanthene was administered orally in doses 1.0, 5.0, 10 and 20 mg/kg in 0.2 ml of oil 7 days prior to radiation treatment at following doses: 1.5, 2.0, 3.0 and 5.0 Gy. Bone marrow was extracted 10-15 minutes after the treatment and the cell suspension was injected into lethally irradiated (8 Gy) recipient mice. Colony-forming activity was assayed by number of exogenous spleen colonies when mice were sacrificed on day 9.

[2] = test system: polychromatophil mouse erythrocytes (line C57 B1); assay: Micronuclei in peripheral polychromatophil erythrocytes after electromagnetic irradiation; assay type: in vivo
Procedure: Protective properties of 9-phenyl-symmetric-octahydroselenoxanthene against non-ionizing radiation were examined by studying formation of micronuclei in polychromatophil mouse erythrocytes (line C57 B1). Micronuclei of the interphase nucleus are acentric chromosome fragments. Animals were exposed to electromagnetic radiation in millimeter wavelength range, frequency 39.5 GHz, and wavelength 7.5 mm for 1 hour. Flux density was approximately 3 microW/cm^2, which is 300 fold less than levels posing danger of overheating due to field energy absorption to a biological object.
5 mg/kg of 9-phenyl-symmetric-octahydroselenoxanthene was administered to group 1 (n=5) orally in 0.2 ml of oil 7 days prior to irradiation. Group 2 (n=5) received 0.2 ml of oil only and untreated mice were used as controls. Mice were sacrificed 1 day after irradiation and number of micronuclei was assayed in peripheral polychromatophil erythrocytes (150,000 cells per sample).

CD34+ cells = assay: Flow cytometry of CD34+ cells in bone marrow and peripheral blood; assay type: in vivo, mouse
Procedure: The effects of the proposed agent (9-phenyl-symmetric-octahydroselenoxanthene) on mouse hematopoiesis were assayed by flow cytometry. Relative number of CD34+ cells and the density of the antigen were assayed in peripheral blood cells (80,000 cells per sample) and bone marrow cells (40,000 cells per sample). As reported earlier, administration of the proposed agent has no effect on relative number of less differentiated stem cells (CD34+).

[3] = test system: LLC (Lewis lung carcinoma); assay: Lewis lung carcinoma growth and metastasis with Platidiam (cisplatin) treatment; assay type: in vivo, C57B1/6 mice
[4] = test system: Lewis lung carcinoma (LLC); assay: Lewis lung carcinoma growth index and lung metastases with localized irradiation; assay type: in vivo, mice; details: for Average number of lung metastases: day 21, surviving animals
Procedure: The number of lung metastases was assayed on day 21 in surviving animals.
As in the previous series, tumor cells were injected subcutaneously into right hind leg at 2.0×10^6 cells/mouse (total of 40 mice).

[5] = Agent administered 1 day prior to analysis, no irradiation
[6] = Agent administered 7 days prior to analysis + irradiation, 1.5 Gy
[7] = Agent administered 7 days prior to analysis, no irradiation
[8] = Inhibitor + localized irradiation
[9] = concurrent use with localized irradiation

Which results are given for “9-phenyl-symmetric-octahydroselenoxanthene”?
cell survival compared with the untreated control ([1]; 5.0 mg/kg 7 days prior, 1.5 Gy): not significantly different; Cell survival relative to the irradiated control ([1]; 5.0 mg/kg 7 days prior, all radiation doses excluding 1.5 Gy (2.0, 3.0, 5.0 Gy)): 2 fold; effect on CFC-S number in donor mice ([1]; 5.0 mg/kg of the agent alone at various time points prior to bone marrow extraction): no effect; Number of colonies formed per 10^5 of bone marrow cells, M ± m ([1]; 5 mg/kg orally, 1 day prior to irradiation 1.5 Gy): 6.4 ± 0.5 per 10^5 of bone marrow cells; Number of colonies formed per 10^5 of bone marrow cells, M ± m ([1]; 5 mg/kg orally, 1 day prior, no irradiation): 12.5 ± 0.6 per 10^5 of bone marrow cells; Number of colonies formed per 10^5 of bone marrow cells, M ± m ([1]; 5 mg/kg orally, 3 days prior to irradiation 1.5 Gy): 9.1 ± 0.5 per 10^5 of bone marrow cells; Number of colonies formed per 10^5 of bone marrow cells, M ± m ([1]; 5 mg/kg orally, 3 days prior, no irradiation): 10.7 ± 0.4 per 10^5 of bone marrow cells; Number of colonies formed per 10^5 of bone marrow cells, M ± m ([1]; 5 mg/kg orally, 7 days prior to irradiation 1.5 Gy (Table 1)): 12.7 ± 0.7 per 10^5 of bone marrow cells; Number of colonies formed per 10^5 of bone marrow cells, M ± m ([1]; 5 mg/kg orally, 7 days prior, no irradiation): 11.1 ± 0.7 per 10^5 of bone marrow cells; persistence of the CFC-S adaptive response ([1]; 5.0 mg/kg, 1.5 Gy): 7 days; increase in CFC-S compared to the irradiated control ([1]; 5.0 mg/kg, 1 day prior to 1.5 Gy (minimal effect)): 2 fold; decrease of the effects of radiation ([1]; 5.0 mg/kg, 7 days prior to 1.5 Gy (maximal effect)): 3 fold; Number of colonies formed per 10^5 of bone marrow cells, M ± m ([1]; 5 mg/kg, 7 days prior to radiation dose 1.5 Gy (Table 2)): 9.2 ± 0.2 per 10^5 of bone marrow cells; Number of colonies formed per 10^5 of bone marrow cells, M ± m ([1]; 5 mg/kg, 7 days prior to radiation dose 2.0 Gy): 3.6 ± 0.3 per 10^5 of bone marrow cells; Number of colonies formed per 10^5 of bone marrow cells, M ± m ([1]; 5 mg/kg, 7 days prior to radiation dose 3.0 Gy): 2.1 ± 0.1 per 10^5 of bone marrow cells; Number of colonies formed per 10^5 of bone marrow cells, M ± m ([1]; 5 mg/kg, 7 days prior to radiation dose 5.0 Gy): 0.6 ± 0.06 per 10^5 of bone marrow cells; Frequency of micronuclei-containing polychromatophil erythrocytes × 10^3 ([2]; 5 mg/kg orally 7 days prior to electromagnetic irradiation 39.5 GHz, 1 hour, assayed 1 day after irradiation): 6.0 ± 2.10 × 10^3; protection against non-ionizing radiation ([2]; electromagnetic irradiation): confers protection; Total CD34+ cells in bone marrow, 10^7, Mean (CD34+ cells; Agent administered 1 day prior to analysis + irradiation, 1.5 Gy): 2.1 10^7; Total CD34+ cells in bone marrow, 10^7, Mean (CD34+ cells; [5]): 4.0 10^7; Total CD34+ cells per 1 ml of peripheral blood, 10^3, Mean (CD34+ cells; [5]): 6.8 10^3; Total CD34+ cells in bone marrow, 10^7, Mean (CD34+ cells; [6]): 1.0 10^7; Total CD34+ cells per 1 ml of peripheral blood, 10^3, Mean (CD34+ cells; [6]): 3.8 10^3; Total CD34+ cells in bone marrow, 10^7, Mean (CD34+ cells; [7]): 4.0 10^7; Total CD34+ cells per 1 ml of peripheral blood, 10^3, Mean (CD34+ cells; [7]): 8.0 10^3; number of more differentiated progenitors (CD34+ cells; blood cells, after 7 days): decreases; portion of CD34+ cells on the blood (CD34+ cells; blood cells, three experiments): does not change; density of CD34 antigen on the cell surface (CD34+ cells; by day 7 after the agent administration, p<0.05): increases; effect on relative number of less differentiated stem cells (CD34+) (CD34+ cells; flow cytometry): no effect; effect on differentiation of progenitor cells (CD34+ cells; peripheral blood and bone marrow composition after irradiation): blocks differentiation of progenitor cells of the granulocyte/macrophage lineage; effect on tumor growth and number of lung metastases ([3]; administered 30 minutes prior to chemotherapy with Platidiam (cisplatin)): did not exhibit any significant effect; Growth index [4, 8]: 4.6 ± 0.8; Growth index ([4]; Inhibitor + localized irradiation, 1 day): 1; Growth index ([4]; Inhibitor + localized irradiation, 4 days): 1.4 ± 0.1; Growth index ([4]; Inhibitor + localized irradiation, 6 days): 1.7 ± 0.2; Growth index ([4]; Inhibitor + localized irradiation, 8 days): 1.84 ± 0.3; Growth index ([4]; Inhibitor + localized irradiation, 11 days): 2.65 ± 0.6; Average number of lung metastases [4, 8]: 13.4 ± 1.8; Growth index ([4]; Inhibitor alone): 7.7 ± 1.7; Growth index ([4]; Inhibitor alone, 1 day): 1; Growth index ([4]; Inhibitor alone, 4 days): 1.64 ± 0.1; Growth index ([4]; Inhibitor alone, 6 days): 3.3 ± 0.25; Growth index ([4]; Inhibitor alone, 8 days): 3.9 ± 0.7; Growth index ([4]; Inhibitor alone, 11 days): 5.3 ± 0.7; Average number of lung metastases ([4]; Inhibitor alone): 33.5 ± 2.5; growth indexes of agent alone versus agent + irradiation ([4]; combination with irradiation): not significantly different; effect on metastasis [4, 9]: does not significantly increase metastasis; protection of tumor cells from effects of radiation [4, 9]: does not protect the tumor cells from effects of radiation; effect on tumor growth ([4]; inhibitor alone vs control): does not affect tumor growth; influence on metastatic processes ([4]; non-irradiated and irradiated tumor-bearing mice, day 21): does not influence metastatic processes significantly

`N.N.[Cl][Pt][Cl]` [Platidiam (cisplatin), cisplatin] was tested. Which “Avg number of lung metastases M ± m” value ([3]; C57B1/6 mice with LLC) did it give?
The value was 6.2 ± 0.7.

What about the “Tumor mass, g M ± m” value ([3]; C57B1/6 mice with LLC) of the same compound?
The value was 4.5 ± 0.5 g.

What about the “Tumor volume, sm^3 M ± m” value ([3]; C57B1/6 mice with LLC) of the same compound?
Its value is 4.6 ± 0.6 sm^3.

What about the “anti-tumor effect (tumor mass and lung metastases)” value ([3]; C57B1/6 mice with LLC) of the same compound?
Its value is “slight but consistent anti-tumor effect”.
